Experimental data reported in patent US8334107B2, “Detection systems utilizing supported lipid bilayers” (priority 2005, dated 2012).

Experiments:
[1] = system: DMPG bilayer on PPE-coated beads; assay: Microfluidic assay: detection of lipid bilayer disruption by fluorescence superquenching; assay type: biochemical; details: injected as 1:1 mixture with 120 μM AQS
Experimental: The preparation of microcolumns with PPE-coated, silica beads was similar to that of with fluorescein containing beads. A 10 μL aliquot of 120 μM AQS was injected to the column. After a certain period of time, a 10 μL aliquot of 1:1 mixture of 120 μM AQS and 220 μM melittin was injected. During this process, the PPE-coated silica bead segment was irradiated at 488 nm and its fluorescence emission intensity was measured at 520 nm every 10 minutes. This experiment was repeated, while injecting 220 μM melittin first, and then 120 μM AQS.
The feasibility of using superquenching as a method of detecting membrane-toxin interactions in microcolumns was also investigated. The fluorescence intensity of the cationic polyelectrolyte poly(p-phenylene-ethynylene) polymer (PPE) can be super-quenched by the quencher 9,10-anthraquinone-2,6-disulfonic acid (AQS). […] It has been observed in flow cytometric studies that formation of DMPG membranes on PPE-coated beads will quench the PPE fluorescence to some extent. The initial rise in fluorescence intensity was probably due to the unquenching of the PPE, due to the removal of lipid bilayers from PPE-coated beads through melittin interaction, whereas the decrease in fluorescence corresponded to superquenching of PPE by AQS after disruption of DMPG bilayer by melittin. […]

[2] = system: lipid bilayer; assay: Superquenching of fluorescent polymer coated lipid bilayer beads (general statement); assay type: biochemical; details: streptolysin O with cholesterol-containing lipids, mellitin with anionic lipids
Excerpt: On the other hand, some test agents may only lead to gaps or smaller interruptions of the lipid bilayer, for example, as a result of insertion of a channel- or pore-forming proteins such as gramicidin and hemolysin. In either case, the result is either complete or partial superquenching of the fluorescent polymer. In general, non-porous beads are used for such quenching assays because the quenchable polymer is preferably coated onto the beads and is not impregnated into the beads.

[3] = system: 80:20 (molar ratio) DMPG and DMPC membrane on biotin containing porous beads; assay: Microfluidic study: detection of membrane interaction by release of reagent (biotin, ostrich quenching-unquenching); assay type: biochemical; details: 20 μL of melittin (220 μM), flow ~1.2 μL/min
Experimental: A microchannel was packed with a segment (about 1 mm) of streptavidin coated beads to which a non saturating amount of fluorescein biotin had been bound. This was followed by a segment (about 1 mm) of blank silica beads and a segment (about 2 mm) of lipid coated porous beads containing biotin. The blank silica beads were served as the spacer to prevent mixing of fluorescein biotin beads with biotin encapsulated beads. Biotin (25 mM) was encapsulated (according to the same procedure for fluorescein) with a 80:20 (molar ratio) mixture of DMPG and DMPC. A […] aliquot of either 10% Triton X-100® detergent or 220 μM melittin was injected to the column. The fluorescein biotin bead segment was irradiated at 488 nm and its fluorescence emission intensity was measured at 520 nm every 10 minutes.
In this study the membrane-toxin interaction was investigated using the microcolumn system by monitoring a bimolecular reaction on downstream beads. […] The unquenching of fluorescence was the signal for the disruption. […] Introduction of free biotin displaced the fluorescein from the cis binding pocket thus unquenching the fluorescence signal. […]
20 μL of melittin (220 μM) was injected to the bead packed microchannel at 18 min. […] The initial fluorescence intensity decrease is again due to photobleaching, resulting from exposure of the fluorescein-biotin segment to the Ar ion laser. […]

[4] = system: 80:20 (molar ratio) DMPG and DMPC lipid bilayers on porous silica beads; assay: Suspension study: melittin-induced release of fluorescein dye from DMPG/DMPC coated porous beads; assay type: biochemical; details: 220 μM melittin, 25° C., 80:20 DMPG:DMPC
Experimental: Experimental procedures were similar to the Triton X-100® detergent based analysis. For experiments with α-toxin, three different toxin concentrations: 15, 45 and 250 μg/mL were used at 37° C. and 25° C. Beads coated with EPC were used. In the experiments with melittin, 220 μM melittin was used with beads coated with either 100% EPC, 10:90 (molar ratio) mixture of DMPG and EPC or an 80:20 mixture of DMPG and DMPC. All melittin experiments were conducted at 25° C.
Previous suspension studies on disruption of lipid bilayers have been performed with small unilamellar vesicles where disruption of the lipid bilayer membranes was detected by monitoring the unquenching of a highly concentrated, encapsulated dye. In the present work disruption was monitored via release of fluorescein dye from porous beads, by measuring the increase in fluorescence intensity of the supernatant at 520 nm. Beads were first suspended in Tris buffer containing the disruptor. […] The measured portion was added back to the bead sample to permit continuous monitoring. […]
In view of the results shown in FIG. 5, the effects of melittin on other mixtures of lipids were examined. […] The increase in fluorescence intensity due to the membrane-melittin interaction, which results in the release of dye from porous beads was about 10 fold. […]

[5] = system: DMPG lipid bilayer on MS-PPE; assay: Disruption of DMPG lipid bilayer on MS-PPE detected by superquenching with AQS, flow cytometry; assay type: biochemical
Experimental: Lipid bilayers were disrupted by adding Triton X-100® detergent to the bead suspension to a final concentration of 0.25% (w/v).
Bead suspensions of 2.5×10^5 PPE-coated microspheres in 200 μL PBS were analyzed using a FACScan flow cytometer (Becton-Dickinson, Sunnyvale, Calif.) with excitation at 488 nm. Fluorescence signals were acquired on the FL-1 channel (525 nm) using log amplification and analyzed with the CellQuest software.
(§1) Bead suspensions of 2.5×10^5 DMPG-coated MS-PPE in 200 μL of PBS were analyzed using a FACScan flow cytometer (Becton-Dickinson, Sunnyvale, Calif.) with excitation at 488 nm. Fluorescence signals were acquired on FL-1 channel (525 nm) using log amplification and analyzed with the CellQuest software. Kinetic analysis of disruption of supported lipid bilayer by melittin was performed by acquiring real-time data with continuous mixing of samples (10^6 MS-PPE in 800 μl of PBS) using a magnetic stirrer. The raw data were analyzed using IDL Query software developed by Bruce Edwards (Cancer Center, University of New Mexico, Albuquerque, N. Mex.).
Because an anionic lipid was used to form a lipid bilayer around MS-PPE, it was expected that MLT will disrupt the DMPG lipid bilayer by such a detergent-like action. This was tested by adding 10 μM AQS to DMPG-coated MS-PPE followed by treatment with one of the following: Triton X-100® detergent, synthetic MLT (sMLT), or natural MLT (nMLT) and immediately reading the fluorescence by flow cytometry. […] These histograms resemble the ones reported previously for MS-PPE, without a lipid coating, in absence and in presence of AQS.
The kinetics of disruption of supported lipid bilayer by MLT were monitored by measuring real-time changes in fluorescence intensity by flow cytometry (FIG. 19). Suspensions of 10^6 DMPG-coated MS-PPE in 800 μL of PBS were treated with AQS at a final concentration of 10 μM, then with either sMLT, Triton X-100® detergent, or no treatment. […] Treatment with sMLT in the absence of AQS led to an increase in normalized fluorescence (FIG. 19, trace A). This can be attributed to disruption of the lipid bilayer by sMLT, and is consistent with a reversal of the slight quenching of fluorescence caused by the formation of a DMPG lipid bilayer over MS-PPE. Addition of AQS alone to DMPG-coated MS-PPE (FIG. 19, trace C) led to a 20% reduction in fluorescence as reported earlier. Addition of Triton X-100® detergent to DMPG-coated MS-PPE after the addition of AQS (first dip in trace E, FIG. 19) caused immediate decrease in fluorescence to ˜10% of its original value (second dip in trace E, FIG. 19). In contrast, addition of sMLT, after the addition of AQS, (FIG. 19, trace D) led to a gradual reduction of fluorescence intensity to ˜20% of the original value. Although MLT forms dimers at high concentrations (Dempsey, C. E. Biochim. Biophys. Acta 1990, 1031, 143-161), it is monomeric at the concentrations used in this study. On the other hand, Triton X-100® detergent forms micelles at the concentration used in this study.

[6] = system: DMPG supported on MS-PPE; assay: Binding curves of MLT to DMPG supported on MS-PPE (superquenching flow cytometric assay); details: flow cytometry, 10 μM AQS
Experimental: FIGS. 18A-B show binding curves for MLT-disruption of supported lipid bilayer by natural MLT (nMLT; FIG. 18A), and synthetic MLT (sMLT; FIG. 18B). Fluorescence intensity was normalized to that without MLT as determined by flow cytometry. The error bars represent the standard deviation (SD) of the means of normalized histograms obtained for 3 replicates.
as §1
From FIG. 18, the association constant (corresponding to the reciprocal of the point of half saturation) for nMLT and sMLT with DMPG were 5×10^6 M^−1 and 1.7×10^6 M^−1, respectively. […] Lower concentrations of nMLT, in comparison to sMLT, were required to disrupt the DMPG lipid bilayer. This might be attributed to the fact that nMLT contains some phospholipase A2 (PLA2) as a contaminant. […]

[7] = system: immobilized anionic DMPG membranes; details: surface plasmon resonance; cited from earlier work

Compound	change in fluorescence intensity of bead segment [1]	effect on the lipid bilayer [2]	increase in fluorescence intensity of fluorescein-biotin segment [3]	increase in fluorescence intensity due to the membrane-melittin interaction [4]	quenching of the MS-PPE after treatment ([5]; 10 μM AQS, sMLT 3.8 μM, nMLT 1.6 μM)	fluorescence intensity, of the original value ([5]; real-time kinetics, added after 10 μM AQS (traces D, E))	association constant (reciprocal of the point of half saturation) with DMPG [6]	association constant [7]
CC[C@H](C)[C@H](NC(=O)CN)C(=O)NCC(=O)N[C@@H](C)C(=O)N[C@H](C(=O)N[C@@H](CC(C)C)C(=O)N[C@@H](CCCCN)C(=O)N[C@H](C(=O)N[C@@H](CC(C)C)C(=O)N[C@H](C(=O)N[C@H](C(=O)NCC(=O)N[C@@H](CC(C)C)C(=O)N1CCC[C@H]1C(=O)N[C@@H](C)C(=O)N[C@@H](CC(C)C)C(=O)N[C@H](C(=O)N[C@@H](CO)C(=O)N[C@@H](Cc1c[nH]c2ccccc12)C(=O)N[C@H](C(=O)N[C@@H](CCCCN)C(=O)N[C@@H](CCCNC(=N)N)C(=O)N[C@@H](CCCCN)C(=O)N[C@@H](CCCNC(=N)N)C(=O)N[C@@H](CCC(N)=O)C(=O)N[C@@H](CCC(N)=O)C(N)=O)[C@@H](C)CC)[C@@H](C)CC)[C@@H](C)O)[C@@H](C)O)C(C)C)C(C)C [melittin]	slight rise in fluorescence intensity followed by a significant decrease	total disruption of the bilayer	not as high as that observed for Triton X-100	about 10 fold	–	–	–	–
sMLT: synthetic melittin obtained from Sigma	–	–	–	–	comparable to that occurring on addition of Triton X-100	~20%	1.7e+06 M⁻¹	2e+06 M⁻¹
